The experiment has as its target T1, human dihydrofolate reductase (hDHFR) (Homo sapiens, UniProt P00374).
T1 sequence (P00374 1-187): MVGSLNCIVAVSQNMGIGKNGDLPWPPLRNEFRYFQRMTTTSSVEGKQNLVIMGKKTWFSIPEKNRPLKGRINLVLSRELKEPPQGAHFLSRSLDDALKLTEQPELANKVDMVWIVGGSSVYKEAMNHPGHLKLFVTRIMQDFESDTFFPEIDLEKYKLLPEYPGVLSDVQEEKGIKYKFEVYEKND
Kind of experiment: hDHFR inhibition assay. In kind it is biochemical.

Regarding `CN(C)c1ccc(C=NNC(=O)CSc2nc3sc4c(c3c(=O)n2-c2ccccc2)CCCCC4)cc1` [compound 23, N′-[4-(Dimethylamino)benzylidene]-2-[(4-oxo-3-phenyl-6,7,8,9-tetrahydro-3H-cyclohepta[4,5]thieno[2,3-d]pyrimidin-2-yl)thio]acetohydrazide], 280 nM corresponded to half-maximal inhibition (IC50).

Values taken from article PMC9753513 (ACS Omega, 2022).
